Paper PMC4503722, “Novel Phenotypic Outcomes Identified for a Public Collection of Approved Drugs from a Publicly Accessible Panel of Assays” (PLoS ONE, 2015)
Like-named read-outs stand apart in the source and are kept apart here. Where a SMILES comes first, the peptide text is derived from it. Bridges are numbered along the chain shown (N, C = ends). [ ]: non-standard residue; d: D form. hArg = N=C(N)NCCCC[C@H](N)C(=O)O; Mpa = O=C(O)CCS

Experiments:
[1] = system: endothelial tube formation in co-cultures of ECFCs and ADSCs treated with VEGF; test: cells; assay type: cell-based, human; conditions: for IC50: read-out: VEGF_ADSC\ECFC Angio CD31 TubeArea summarized IC50
[2] = system: ECFC/ADSC co-culture cell nuclei number; conditions: for IC50: read-out: VEGF_ADSC\ECFC Angio Hoechst NucArea summarized IC50
[3] = system: HeLa cells; test: cells; assay type: cell-based;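 on Hela CellCycMod PI 4N summarized IC50: value tracks stimulation of 4N DNA content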

C#C[C@]1(O)CC[C@H]2[C@@H]3CCc4cc(O)ccc4[C@H]3CC[C@@]21C [NCGC00091533-10]
IC50 [1]: > 10 µM | IC50 [2]: > 10 µM

Cc1[nH]cnc1C[C@H]1CCc2c(C)c3ccccc3n2C1=O [NCGC00249415-01]
VEGF_ADSC\ECFC Angio CD31 TubeArea IC50/EC50 [1]: > 10 µM | VEGF_ADSC\ECFC Angio Hoechst NucArea IC50/EC50 [2]: > 10 µM

Cc1c(C(=O)NN2CCCCC2)nn(-c2ccc(Cl)cc2Cl)c1-c1ccc(Cl)cc1 [NCGC00164572-02]
IC50/EC50, VEGF_ADSC\ECFC Angio CD31 TubeArea (assay number 2) [1]: > 10 µM | IC50/EC50, VEGF_ADSC\ECFC Angio Hoechst NucArea (assay number 3) [2]: > 10 µM

CC[C@]12CCCN3CCc4c(n(c5ccccc45)C(=O)C1)[C@@H]32 [NCGC00262533-02]
VEGF_ADSC\ECFC Angio CD31 TubeArea IC50/EC50 [1]: > 10 µM | VEGF_ADSC\ECFC Angio Hoechst NucArea IC50/EC50 [2]: > 10 µM

Cc1cccc(C)c1NC(=O)CN1CCN(CCCC(c2ccc(F)cc2)c2ccc(F)cc2)CC1 [NCGC00016627-04]
IC50/EC50, VEGF_ADSC\ECFC Angio CD31 TubeArea (assay number 2) [1]: > 10 µM | IC50/EC50, VEGF_ADSC\ECFC Angio Hoechst NucArea (assay number 3) [2]: 9.37 µM

C#C[C@]1(O)CC[C@H]2[C@@H]3CCC4=CCCC[C@@H]4[C@H]3C(=C)C[C@@]21CC [NCGC00167449-02]
VEGF_ADSC\ECFC Angio CD31 TubeArea IC50/EC50 [1]: > 10 µM | VEGF_ADSC\ECFC Angio Hoechst NucArea IC50/EC50 [2]: 9.571 µM

O=NN(CCCl)C(=O)NC1CCCCC1 [NCGC00167466-02]
VEGF_ADSC\ECFC Angio CD31 TubeArea IC50/EC50 [1]: > 10 µM | VEGF_ADSC\ECFC Angio Hoechst NucArea IC50/EC50 [2]: > 10 µM

Cc1ccc(C(=O)Oc2ccc(C(O)CNC(C)(C)C)cc2OC(=O)c2ccc(C)cc2)cc1 (centres unmarked) [NCGC00253593-01]
VEGF_ADSC\ECFC Angio CD31 TubeArea IC50/EC50 [1]: > 10 µM | VEGF_ADSC\ECFC Angio Hoechst NucArea IC50/EC50 [2]: > 10 µM

O=[N+]([O-])C(Br)(CO)CO [NCGC00164057-03]
IC50 [1]: > 10 µM | IC50 [2]: > 10 µM

COc1cc(/C=C2\CCC/C(=C\c3ccc(O)c(OC)c3)C2=O)ccc1O [NCGC00164486-04]
IC50 [1]: > 10 µM | IC50 [2]: 6.98 µM

CN(C)CCCN1c2ccccc2Sc2ccc(Cl)cc21 [NCGC00015273-19]
IC50 [1]: > 10 µM | IC50 [2]: > 10 µM

COc1ccc([C@@H]2Sc3ccccc3NC(=O)[C@@H]2O)cc1 [NCGC00253672-01]
VEGF_ADSC\ECFC Angio CD31 TubeArea IC50/EC50 [1]: > 10 µM | VEGF_ADSC\ECFC Angio Hoechst NucArea IC50/EC50 [2]: > 10 µM

CN(C)CCOC1=Cc2ccccc2Sc2ccc(Cl)cc21 [NCGC00182081-04]
VEGF_ADSC\ECFC Angio CD31 TubeArea IC50/EC50 [1]: > 10 µM | VEGF_ADSC\ECFC Angio Hoechst NucArea IC50/EC50 [2]: > 10 µM

COc1ccc(CCN2CCC(Nc3nc4ccccc4n3Cc3ccc(F)cc3)CC2)cc1 [NCGC00016913-14]
VEGF_ADSC\ECFC Angio CD31 TubeArea IC50/EC50 [1]: > 10 µM | VEGF_ADSC\ECFC Angio Hoechst NucArea IC50/EC50 [2]: > 10 µM

Oc1ccc(/C=C/c2cc(O)cc(O)c2)cc1 [NCGC00017352-24]
IC50/EC50, VEGF_ADSC\ECFC Angio CD31 TubeArea (assay number 2) [1]: > 10 µM | IC50/EC50, VEGF_ADSC\ECFC Angio Hoechst NucArea (assay number 3) [2]: > 10 µM

CCCCN(CCCC)CCC(O)c1cc2c(Cl)cc(Cl)cc2c2cc(C(F)(F)F)ccc12 (centres unmarked) [NCGC00179250-03]
VEGF_ADSC\ECFC Angio CD31 TubeArea IC50/EC50 [1]: > 10 µM | VEGF_ADSC\ECFC Angio Hoechst NucArea IC50/EC50 [2]: > 10 µM

OCCN1CCN(CCCN2c3ccccc3Sc3ccc(C(F)(F)F)cc32)CC1 [NCGC00015436-11]
VEGF_ADSC\ECFC Angio CD31 TubeArea IC50/EC50 [1]: > 10 µM | VEGF_ADSC\ECFC Angio Hoechst NucArea IC50/EC50 [2]: > 10 µM

CCOC(=O)NC(C)(C)Cc1ccc(Cl)cc1 [NCGC00183835-01]
IC50 [1]: > 10 µM | IC50 [2]: > 10 µM

COc1cccc2c1C(=O)c1c(O)c3c(c(O)c1C2=O)C[C@@](O)(C(=O)CO)C[C@@H]3O[C@H]1C[C@H](N)[C@H](O)[C@H](C)O1.Cl [NCGC00263918-03]
VEGF_ADSC\ECFC Angio CD31 TubeArea IC50/EC50 [1]: 0.0429 µM | VEGF_ADSC\ECFC Angio Hoechst NucArea IC50/EC50 [2]: 0.114 µM

CC(=O)Oc1cccc2c1C(=O)c1c(OC(C)=O)cc(C(=O)O)cc1C2=O [NCGC00018274-05]
IC50/EC50, VEGF_ADSC\ECFC Angio CD31 TubeArea (assay number 2) [1]: > 10 µM | IC50/EC50, VEGF_ADSC\ECFC Angio Hoechst NucArea (assay number 3) [2]: > 10 µM

CC(C)c1c(C(=O)Nc2ccccc2)c(-c2ccccc2)c(-c2ccc(F)cc2)n1CC[C@@H](O)C[C@@H](O)CC(=O)O [Atorvastatin, reference compound]
inhibition of endothelial tube / cord formation (in words) [1]: did not inhibit endothelial tube formation

NC(=O)[C@@H]1CSSCCC(=O)N[C@@H](CCCCN=C(N)N)C(=O)NCC(=O)N[C@@H](CC(=O)O)C(=O)N[C@@H](Cc2c[nH]c3ccccc23)C(=O)N2CCC[C@H]2C(=O)N1 [NCGC00263524-01] ([Mpa][hArg]GDWPC-NH2; disulfide 1-7)
VEGF_ADSC\ECFC Angio CD31 TubeArea IC50/EC50 [1]: > 10 µM | VEGF_ADSC\ECFC Angio Hoechst NucArea IC50/EC50 [2]: > 10 µM

CC(=O)c1ccc(OCC(=O)N2CCCCC2)cc1 [NCGC00183022-01]
VEGF_ADSC\ECFC Angio CD31 TubeArea IC50/EC50 [1]: > 10 µM | VEGF_ADSC\ECFC Angio Hoechst NucArea IC50/EC50 [2]: > 10 µM

CN(C)C(=S)SSC(=S)N(C)C [NCGC00091563-12]
IC50 [2]: > 10 µM

CC(C)(C)CC(C)(C)c1ccc(OCCOCC[N+](C)(C)Cc2ccccc2)cc1 [NCGC00016373-08]
IC50 [1]: 3.74 µM

CCOc1ccc2nc3cc(N)ccc3c(N)c2c1 [NCGC00096056-02]
IC50 ([3]; assay number 14, 2N, read-out: Hela CellCycMod PI 2N summarized IC50): > 10 µM | IC50 ([3]; assay number 15, S phase, read-out: Hela CellCycMod PI S Phase summarized IC50): > 10 µM | IC50 ([3]; assay number 16, 4N, read-out: Hela CellCycMod PI 4N summarized IC50): > 10 µM | IC50 ([3]; assay number 17, MI, read-out: Hela CellCycMod PI MI summarized IC50): > 10 µM | IC50 ([3]; assay number 18, cell number, read-out: Hela CellCycMod PI Cell Number summarized IC50): 2.11 µM | IC50 [2]: > 10 µM
